# What was measured:
# [1] = in vivo; cited from earlier work
# rhinovirus = conditions: cited from earlier work
# influenza viruses = conditions: determined by the present inventor
# common cold germs = conditions: cited from earlier work
# rhinoviruses = conditions: cited from earlier work
# common colds = conditions: 37 zinc-treated subjects; cited from earlier work
compound,measurement,setting,value
CCCc1cc(=O)oc2c3c(c4c(c12)OC(C)(C)C=C4)O[C@H](C)[C@@H](C)[C@@H]3O [Calanolide A],safety and tolerability,[1],safe and well tolerated
"CCO [Ethanol, ethanol]",activity against rhinovirus,rhinovirus,works well
same,ability to kill influenza viruses,influenza viruses,ineffective
same,killing of common cold germs in oral mucosa,common cold germs,known to kill
zinc,inhibition of replication of rhinoviruses,rhinoviruses,inhibit the replication
same,subjects asymptomatic after seven days,common colds,86%
